In US20170119790A1, “Agents, Uses and Methods” (CYTOGUIDE A/S, priority 2009, published 2017):
Entries after “also recorded” stand apart in the source; their conditions may differ. Read-outs that look alike come from different tables or passages of the source.

How the values were obtained:
[1] = system: collagen-induced arthritis; details: for body weight after initiation of treatment: FIG. 47; for day of disease onset: mean±SD; for thymus weight compared to vehicle: at sacrifice
Description: The effect of dexamethasone on arthritis development in the rat CIA model was tested at three dosages (0.01, 0.1 and 1 mg/kg). Dexamethasone was administered intravenously on day 10 (day of disease onset), 13, 16 and 19. […] Treatment with vehicle (PBS/2.5% EtOH) served as negative control. Rats were sacrificed 21 days after immunization.
Collagen arthritis was induced in 9 weeks old female Lewis rats using a two-step immunization protocol. On day 0, all mice were immunized by intradermal injection of 1 mg/ml bovine type II collagen emulsified in Incomplete Freund's adjuvant at several sites at the back. Arthritis development was accelerated by an intradermal boost in the back and tail-base with 100 Sg bovine type II collagen in IFA on day 7. In order to perform immunization and intradermal boost, rats were anesthetized by inhalation of 3-4% isoflurane in a mixture of oxygen and N2O.
Rats were evaluated 6 times per week (once during weekends) for arthritis severity using a macroscopic scoring system of 0-4 for each paw as detailed below: • 0=no signs of arthritis • 0.5=unloading of the paw and/or light redness of ankle joint • 1=redness and mild swelling of the ankle joint • 2=redness and swelling of paw • 3=severe redness and swelling of entire paw including digits • 4=maximally swollen paw, often involvement of multiple joints and extending towards knee joint.
The total clinical score of an individual rat is defined as the sum of the clinical scores of all four paws for each day. At the end of the study, the cumulative arthritis score was calculated for each rat. This cumulative arthritis score is defined as the sum of the total clinical scores obtained from day 0 till day 21.
The day of disease is defined as the first day of three consecutive days on which a total arthritis score of more than 0 was observed.
The swelling of the hind paws was measured during weekdays with a laser scan micrometer (Mitutoyo, LSM-503S/6200). At the end of the study, the cumulative paw swelling was calculated for each rat as follows: a baseline value was determined by averaging the paw thickness values of day 0-9 when no signs of arthritis were visible. Next, increase in paw thickness was calculated by subtracting the baseline value from the paw thickness values obtained on day 10-21 (delta value). Cumulative paw swelling is defined as the sum of the delta paw thickness values from day 10 till 21.
Spleen, thymus and liver were isolated and weighed at sacrifice. Weights were normalized for body weight.
Collagen-induced arthritis (CIA) was induced in female Lewis rats (9 weeks of age) by intradermal injection of approximately 1 mg bovine type II collagen (Chondrex) emulsified in Incomplete Freund's adjuvant (IFA). The rats were immunized at several sites at the back under isoflurane anaesthesia (day 0) and boosted intradermal at the back and tail-base with 100 μg bovine type II collagen in IFA at day 7. The rats were scored 6 times per weeks for clinical signs of arthritis. Clinical severity of CIA was determined by swelling of individual joints and the number of affected joints in the front and rear paws. Each paw was scored from 1 to 4, so the maximum clinical score, including all four paws was 16.
A total of 20 rats were divided into five treatment groups (4 rats each). […] Changes in ankle size and body weight were monitored during the treatment process. On day 21, all animals were sacrificed and joint tissue, spleen, liver and thymus were dissected.

[2] = system: LPS mediated TNFα stimulation of rat macrophages / spleen cells; experiment: Rat in vitro LPS model; type: cell-based; details: 1 μg/ml, LPS 20 hours, FIG. 37
Description: Rat or mouse peritoneal or spleen cell suspensions were prepared from female Lewis rats (Harlan) or BalB/cA mice (Taconic). Human mononuclear cells were isolated from buffycoats (Skejby University Hospital) as described above. The purified cells were suspended in RPMI medium supplemented with 10% FCS and 2 mM L-glutamine and cultured (2×10^5 per well) overnight in 96-well flat bottomed plates (125 μl per well) at 37° C. and 5% CO2. Glucocorticoid conjugates (Example 8), free glucocorticoids or PBS were serial diluted in supplemented RPMI medium and added (100 μl) to the overnight cell cultures at final concentrations ranging from 1-10^−7 μg glucocorticoid/ml. After incubation for a specific time ranging from 30 min-24 hours, 150 μl supernatant was carefully aspirated and 150 μl supplemented RPMI medium added to the wells before further incubation overnight. Each incubation condition was tested in duplicates or triplicates. After 16-20 hours, the cells were challenged with lipopolysaccharide (LPS) (250 ng/ml) for 4 hours before supernatant was aspirated from each well and frozen at -20° C.

[3] = system: LPS mediated TNFα stimulation; experiment: Rat in vivo LPS model; set-up: species or system Lewis rats
[4] = system: LPS mediated TNFα stimulation; details: serum 2 hours post LPS challenge, FIG. 42

thymus weight compared to vehicle ([1]; 1 mg/kg): significantly decreased | spleen and liver weights compared to vehicle ([1]; 0.01, 0.1 and 1 mg/kg groups): No significant differences | spleen and thymus weight compared with rats injected with ED2-dexamethasone ([3]; 2 days post LPS injection, FIG. 39B and C): significantly lower
SMILES: C[C@@H]1C[C@H]2[C@@H]3CCC4=CC(=O)C=C[C@]4(C)[C@@]3(F)[C@@H](O)C[C@]2(C)[C@@]1(O)C(=O)CO [dexamethasone]
cumulative arthritis score reduced with respect to the vehicle group ([1]; 0.01 mg/kg): 39% | day on which disease incidence of 100% was reached ([1]; 0.01 mg/kg): 14 days | body weight after initiation of treatment ([1]; 0.01 mg/kg): a certain degree of body weight loss | cumulative arthritis score reduced with respect to the vehicle group ([1]; 0.1 mg/kg): 69% | day of disease onset ([1]; 0.1 mg/kg i.v. day 10, 13, 16, 19): 13.8 ± 1.0 days | thymus weight compared to vehicle ([1]; 0.1 mg/kg): significantly decreased; also recorded: significantly lower | cumulative arthritis score reduced with respect to the vehicle group ([1]; 1 mg/kg): 91% | day of disease onset ([1]; 1 mg/kg i.v. day 10, 13, 16, 19): 18.3 ± 2.1 days | body weight after initiation of treatment ([1]; 0.01, 0.1 and 1 mg/kg groups): decreased gradually | TNFα concentration higher in supernatants of macrophages stimulated without the agent (ED2 or PBS) [2]: approximately 10 fold | level of TNFα lower compared to vehicle ([3]; i.v. 20 hours before LPS, serum 2 hours after LPS, FIG. 39A): 2 fold | TNFα level lower compared to vehicle [4]: 2 fold
